Counter-ions that a name gives are not always drawn.
Assays:
Experiment in all cases: Cell viability drug screen, 12-point dose-response AUC
Assay type in all cases: cell-based, human
AGS = conditions: 72 hours; for area under the viability curve (AUC), normalized: AGS cells, 12-point dose-response
In short: (§1)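 Gastric cancer lines seeded 5×10^3 cells/well, dosed after 24 h with half-log 12-point compound dilutions (DMSO 0.5% control), then 72 h at 37 °C. Viability by luminescence, normalized to DMSO; AUC by trapezoidal method, averaged over repeats.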

Hs746T = conditions: 72 hours; for area under the viability curve (AUC), normalized: Hs746T cells, 12-point dose-response
In short: (§2)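 Each cell line receives a twelve-point half-log titration of drug beginning 24 h after plating 5×10^3 cells per well. Following 72 h culture at 37 °C, luminescent signal is recorded and expressed versus vehicle. AUC is derived by the trapezoidal method.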

KATO3 = KATO3 cells, 72 hours; for area under the viability curve (AUC), normalized: 12-point dose-response
In short: as §2

MKN1 = MKN1 cells, 72 hours; for area under the viability curve (AUC), normalized: 12-point dose-response
In short: as §2

MKN28 = MKN28 cells, 72 hours; for area under the viability curve (AUC), normalized: 12-point dose-response
In short: as §2

MKN45 = conditions: 72 hours; for area under the viability curve (AUC), normalized: MKN45 cells, 12-point dose-response
In short: as §1

MKN74 = MKN74 cells, 72 hours; for area under the viability curve (AUC), normalized: 12-point dose-response
In short: as §1

NCC19 = NCC19 cells, 72 hours; for area under the viability curve (AUC), normalized: 12-point dose-response
In short: as §2

NCC20 = NCC20 cells, 72 hours; for area under the viability curve (AUC), normalized: 12-point dose-response
In short: as §2

NCC24 = NCC24 cells, 72 hours; for area under the viability curve (AUC), normalized: 12-point dose-response
In short: as §2

NCC59 = NCC59 cells, 72 hours; for area under the viability curve (AUC), normalized: 12-point dose-response
In short: as §2

NCI_N87 = NCI_N87 cells, 72 hours; for area under the viability curve (AUC), normalized: 12-point dose-response
In short: as §2

OCUM1 = OCUM1 cells, 72 hours; for area under the viability curve (AUC), normalized: 12-point dose-response
In short: as §2

SK4 = conditions: 72 hours; for area under the viability curve (AUC), normalized: SK4 cells, 12-point dose-response
In short: as §2

SNU16 = SNU16 cells, 72 hours; for area under the viability curve (AUC), normalized: 12-point dose-response
In short: as §2

SNU1750 = conditions: 72 hours; for area under the viability curve (AUC), normalized: SNU1750 cells, 12-point dose-response
In short: as §2

SNU1967 = SNU1967 cells, 72 hours; for area under the viability curve (AUC), normalized: 12-point dose-response
In short: as §2

SNU1 = SNU1 cells, 72 hours; for area under the viability curve (AUC), normalized: 12-point dose-response
In short: as §2

SNU216 = conditions: 72 hours; for area under the viability curve (AUC), normalized: SNU216 cells, 12-point dose-response
In short: as §1

SNU484 = conditions: 72 hours; for area under the viability curve (AUC), normalized: SNU484 cells, 12-point dose-response
In short: as §2

SNU601 = SNU601 cells, 72 hours; for area under the viability curve (AUC), normalized: 12-point dose-response
In short: as §2

SNU620 = SNU620 cells, 72 hours; for area under the viability curve (AUC), normalized: 12-point dose-response
In short: as §2

SNU638 = SNU638 cells, 72 hours; for area under the viability curve (AUC), normalized: 12-point dose-response
In short: as §2

SNU668 = conditions: 72 hours; for area under the viability curve (AUC), normalized: SNU668 cells, 12-point dose-response
In short: as §2

SNU719 = SNU719 cells, 72 hours; for area under the viability curve (AUC), normalized: 12-point dose-response
In short: as §1

YCC11 = conditions: 72 hours; for area under the viability curve (AUC), normalized: YCC11 cells, 12-point dose-response
In short: as §2

YCC2 = YCC2 cells, 72 hours; for area under the viability curve (AUC), normalized: 12-point dose-response
In short: as §2

YCC3 = YCC3 cells, 72 hours; for area under the viability curve (AUC), normalized: 12-point dose-response
In short: as §2

FU97 = tested on: FU97; design: Average Area Under the Viability Curve (AUC), AUC norm value: scale not given here; conditions: FU97 cells, 72 hours; for area under the viability curve (AUC), normalized: 12-point dose-response
In short: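 Trapezoidal AUC of a 12-point, DMSO-normalized dose-response curve. Luminescent viability was measured after 72 h of exposure at 37° C to half-log serial dilutions (0.5% DMSO control), dosed 24 h after plating FU97 cells at 5×10^3 per well.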

## CC[C@@]1(O)C(=O)OCc2c1cc1n(c2=O)Cc2cc3c(CN(C)C)c(O)ccc3nc2-1 [Topotecan HCI, Topotecan HCl]
AGS; AGS cells (non-SEM subtype)
  Average Area Under the Viability Curve (AUC), AUC norm value: −2.159
Hs746T; Hs746T cells (SEM subtype)
  Average Area Under the Viability Curve (AUC), AUC norm value: 0.4587
KATO3
  Average Area Under the Viability Curve (AUC), AUC norm value: 5.01
MKN1
  Average Area Under the Viability Curve (AUC), AUC norm value: −0.9954
MKN28
  Average Area Under the Viability Curve (AUC), AUC norm value: 1.259
MKN45; MKN45 cells (non-SEM subtype)
  Average Area Under the Viability Curve (AUC), AUC norm value: 1.195
MKN74
  Average Area Under the Viability Curve (AUC), AUC norm value: 0
NCC19
  Average Area Under the Viability Curve (AUC), AUC norm value: 2.896
NCC20
  Average Area Under the Viability Curve (AUC), AUC norm value: −2.367
NCC24
  Average Area Under the Viability Curve (AUC), AUC norm value: 0.0033
NCC59
  Average Area Under the Viability Curve (AUC), AUC norm value: 1.957
NCI_N87
  Average Area Under the Viability Curve (AUC), AUC norm value: 2.857
OCUM1
  Average Area Under the Viability Curve (AUC), AUC norm value: −1.681
SK4; SK4 cells (SEM subtype)
  Average Area Under the Viability Curve (AUC), AUC norm value: −0.4515
SNU16
  Average Area Under the Viability Curve (AUC), AUC norm value: −0.5292
SNU1750; SNU1750 cells (SEM subtype)
  Average Area Under the Viability Curve (AUC), AUC norm value: 0.2818
SNU1967
  Average Area Under the Viability Curve (AUC), AUC norm value: −2.648
SNU1
  Average Area Under the Viability Curve (AUC), AUC norm value: −0.6163
SNU216; SNU216 cells (non-SEM subtype)
  Average Area Under the Viability Curve (AUC), AUC norm value: 1.123
SNU484; SNU484 cells (SEM subtype)
  Average Area Under the Viability Curve (AUC), AUC norm value: 1.128
SNU601
  Average Area Under the Viability Curve (AUC), AUC norm value: −0.5589
SNU620
  Average Area Under the Viability Curve (AUC), AUC norm value: −0.7611
SNU638
  Average Area Under the Viability Curve (AUC), AUC norm value: −0.7133
SNU668; SNU668 cells (SEM subtype)
  Average Area Under the Viability Curve (AUC), AUC norm value: −1.128
SNU719
  Average Area Under the Viability Curve (AUC), AUC norm value: 3.069
YCC11; YCC11 cells (SEM subtype)
  Average Area Under the Viability Curve (AUC), AUC norm value: −0.573
YCC2
  Average Area Under the Viability Curve (AUC), AUC norm value: 0.1906
YCC3
  Average Area Under the Viability Curve (AUC), AUC norm value: 1.923
FU97
  Average Area Under the Viability Curve (AUC), AUC norm value: −0.8445

## CC(/C=C/C(=O)NO)=C\[C@@H](C)C(=O)c1ccc(N(C)C)cc1 [Trichostatin A (TSA), Trichostatin A]
AGS
  area under the viability curve (AUC), normalized: −1.137
Hs746T
  area under the viability curve (AUC), normalized: 0.6621
KATO3
  area under the viability curve (AUC), normalized: −0.1555
MKN1
  area under the viability curve (AUC), normalized: 0.4223
MKN28
  area under the viability curve (AUC), normalized: −0.6515
MKN45
  area under the viability curve (AUC), normalized: 2.215
MKN74
  area under the viability curve (AUC), normalized: 0.3005
NCC19
  area under the viability curve (AUC), normalized: −0.3026
NCC20
  area under the viability curve (AUC), normalized: −1.842
NCC24
  area under the viability curve (AUC), normalized: −1.307
NCC59
  area under the viability curve (AUC), normalized: 1.784
NCI_N87
  area under the viability curve (AUC), normalized: −0.01232
OCUM1
  area under the viability curve (AUC), normalized: 0.1474
SK4
  area under the viability curve (AUC), normalized: 0.7897
SNU16
  area under the viability curve (AUC), normalized: 1.141
SNU1750
  area under the viability curve (AUC), normalized: −1.0771
SNU1967
  area under the viability curve (AUC), normalized: −1.472
SNU1
  area under the viability curve (AUC), normalized: −0.9946
SNU216
  area under the viability curve (AUC), normalized: 0
SNU484
  area under the viability curve (AUC), normalized: 0.4515
SNU601
  area under the viability curve (AUC), normalized: 1.155
SNU620
  area under the viability curve (AUC), normalized: −1.343
SNU638
  area under the viability curve (AUC), normalized: −0.2758
SNU668
  area under the viability curve (AUC), normalized: 0.1344
SNU719
  area under the viability curve (AUC), normalized: 1.883
YCC11
  area under the viability curve (AUC), normalized: −0.2695
YCC2
  area under the viability curve (AUC), normalized: 0.2017
YCC3
  area under the viability curve (AUC), normalized: 1.17
FU97
  area under the viability curve (AUC), normalized: −1.181

## CC(C)[C@]12O[C@H]1[C@@H]1O[C@]13[C@]1(O[C@H]1C[C@H]1C4=C(CC[C@@]13C)C(=O)OC4)[C@@H]2O [Triptolide]
AGS
  area under the viability curve (AUC), normalized: −1.267
Hs746T
  area under the viability curve (AUC), normalized: 0.17
KATO3
  area under the viability curve (AUC), normalized: 5.715
MKN1
  area under the viability curve (AUC), normalized: 0.6772
MKN28
  area under the viability curve (AUC), normalized: −0.03132
MKN45
  area under the viability curve (AUC), normalized: 1.157
MKN74
  area under the viability curve (AUC), normalized: −0.8231
NCC19
  area under the viability curve (AUC), normalized: −1.507
NCC20
  area under the viability curve (AUC), normalized: 0
NCC24
  area under the viability curve (AUC), normalized: −1.656
NCC59
  area under the viability curve (AUC), normalized: 0.356
NCI_N87
  area under the viability curve (AUC), normalized: −0.7868
OCUM1
  area under the viability curve (AUC), normalized: 1.992
SK4
  area under the viability curve (AUC), normalized: −1.232
SNU16
  area under the viability curve (AUC), normalized: 1.9544
SNU1750
  area under the viability curve (AUC), normalized: −0.4213
SNU1967
  area under the viability curve (AUC), normalized: −0.4902
SNU1
  area under the viability curve (AUC), normalized: −0.1207
SNU216
  area under the viability curve (AUC), normalized: 1.18
SNU484
  area under the viability curve (AUC), normalized: −1.234
SNU601
  area under the viability curve (AUC), normalized: 0.3854
SNU620
  area under the viability curve (AUC), normalized: −0.986
SNU638
  area under the viability curve (AUC), normalized: 0.828
SNU668
  area under the viability curve (AUC), normalized: −1.284
SNU719
  area under the viability curve (AUC), normalized: 4.573
YCC11
  area under the viability curve (AUC), normalized: 0.4144
YCC2
  area under the viability curve (AUC), normalized: 0.6309
YCC3
  area under the viability curve (AUC), normalized: 2.62
FU97
  area under the viability curve (AUC), normalized: −0.6238

Reference: patent US20250129430A1, “HIGH ATP-AFFINITY PROTEIN AS THERAPEUTIC TARGET FOR INTRACTABLE CANCER MOLECULAR SUBTYPES AND INHIBITOR THEREOF” (VeraVerse Co., Ltd., priority 2021, published 2025)
